# Reference: PubChem BioAssay AID1963428 (Molecular Pharmacology Branch, DTP, NCI, 2024)
# Test system: 171881-019-R-J1-PDC complex spheroid growth, % test/control
# Test: Anticancer human tumor 171881-019-R-J1-PDC patient-derived invasive breast carcinoma cell line growth inhibition [Asc]
# Settings: for IC50: curve of first compound; for viability, T/C: stronger effect = lower value
# Protocol: Multicellular complex tumor spheroid response to apoptosis pathway targeting inhibitors Alrizomadlin, Pelcitoclax, and Dasminapant in combination with a variety of drugs and investigational agents in selected tumor cell lines
# The MDM2 inhibitor alrizomadlin, the Bcl-2/Bcl-xL inhibitor pelcitoclax, and the IAPs inhibitor dasminapant were evaluated both individually and in combination with standard of care and investigational anticancer small molecules within a complex spheroid model of solid tumors. . Complex spheroids include a stromal component modeled by human endothelial cells (HUVEC) and fibroblasts modeled by human mesenchymal stem cells (MSCs). The concentration ranges selected for each drug and investigational agent were based upon clinically achievable concentrations if the clinical Cmax of the agent was known.
# Compounds. The drugs and investigational agents: alrizomadlin (APG-115; NSC831270), pelcitoclax (APG-1252; NSC835773), dasminapant (APG-1387;NSC834197), TAK-243 (NSC785004), copanlisib (NSC809693), olaparib (NSC753686), talazoparib (NSC767125), cobimetinib (NSC 768068), eltanexor (KPT-8602, NSC 794443), abemaciclib (NSC 768073), sotorasib (NSC818433), adagrasib (NSC 831453), MRTX-1133 (NSC 836407), Iadademestat (ORY1001, NSC 806812), and RMC-4630 (NSC839698), were obtained from the NCI Developmental Therapeutics Program Chemical Repository. The FDA-approved anticancer drug set is available from the Developmental Therapeutics Program at https://dtp.cancer.gov/organization/dscb/obtaining/available plates.htm. […] The stock solutions were prepared in dimethyl sulfoxide (DMSO, Sigma-Aldrich, St. Louis, MO, cat. D2650) at 800-fold the tested concentration and stored at -70 degrees C prior to their use. All drugs and investigational agents were tested over a range starting from a high concentration at or near the clinical Cmax and decreasing in half-log increments. If the clinical Cmax for an agent had not been determined, the highest concentration tested was 10 microM.
# The patient-derived cancer (PDC) cell lines include five colon adenocarcinomas: 186277-243-T-J2-PDC, 616215-338-R-J1-PDC, 439559-082-T-J2-PDC, 463943-066-T-J2-PDC, and 519858-162-T-J1-PDC; three pancreatic carcinomas: 323965-272-R-J2-PDC, 521955-158-R6-J3-PDC, and 521955-158-R2-J5-PDC; two uterine sarcomas: 327498-152-R-J2-PDC and 993429-296-R-J1-PDC; two rhabdomyosarcomas: 755483-174-R-J1-PDC and 772245-204-R-J1-PDC; two soft tissue sarcomas: 126254-015-R-J1-PDC and 494315-158-R-J1-PDC; two malignant fibrous histiocytomas: 317291-083-R-J1-PDC and 596521-263-R-J1-PDC; two breast carcinomas: 171881-019-R-J1-PDC and 885512-296-R-J2-PDC; and one ovarian carcinoma: 6556581-035-R-J-PDC were obtained from the NCI PDMR, (https://pdmr.cancer.gov). The established cell lines HSSY-2 synovial sarcoma (RRID:CVCL 8719), SYO-1 synovial sarcoma (RRID:CVCL_7146), MPNST malignant peripheral neural sheath tumor were obtained from the Sloan Kettering Institute. The following established cell lines were purchased from the American Type Culture Collection (ATCC, Manassas, VA), Sor the received from the NCI repository:, PANC-1 pancreatic carcinoma (CRL-1469, RRID:CVCL_0480), OVCAR-5 ovarian carcinoma (RRID:CVCL_1628), OVCAR-8 ovarian carcinoma (RRID:CVCL_1629), , MCF-7 breast carcinoma (CRL-12584, RRID:CVCL_0031), MDA-MB-231 breast carcinoma (CRL-12532, RRID:CVCL_0062), NCI-H1876 small cell lung carcinoma (CRL-5902, RRID:CVCL_1503), NCI-H510A small cell lung carcinoma (HTB-184, RRID:CVCL_1565), NCI-H1417 (CRL-5869, RRID:CVCL_1469), and NCI-H196 small cell lung carcinoma (CRL-5823, RRID:CVCL_1509). Dr. Peter Houghton (Greehey Children's Cancer Research Institute, University of Texas Health Science Center, San Antonio, TX) provided Rh-18 rhabdomyosarcoma (RRID:CVCL_1659). Pooled donor human umbilical vein endothelial cells (HUVEC, Lonza, cat. CC-2519) and human mesenchymal stem cells (hMSC, Lonza, cat. PT-2501) were purchased from Lonza (Walkersville, MD).
# Cell Culture. […]
# [1] = second compound 0.03 µM, first compound 0.00316 µM
# [2] = second compound 0.03 µM, first compound 0.01 µM
# [3] = second compound 0.03 µM, first compound 0.0316 µM
# [4] = second compound 0.03 µM, first compound 0.1 µM
# [5] = second compound 0.03 µM, first compound 0.316 µM
# [6] = second compound 0.03 µM, first compound 1 µM
# [7] = second compound 0.0949 µM, first compound 0.00316 µM
# [8] = second compound 0.0949 µM, first compound 0.01 µM
# [9] = second compound 0.0949 µM, first compound 0.0316 µM
# [10] = second compound 0.0949 µM, first compound 0.1 µM
# [11] = second compound 0.0949 µM, first compound 0.316 µM
# [12] = second compound 0.0949 µM, first compound 1 µM
# [13] = second compound 0.3 µM, first compound 0.00316 µM
# [14] = second compound 0.3 µM, first compound 0.01 µM
# [15] = second compound 0.3 µM, first compound 0.0316 µM
# [16] = second compound 0.3 µM, first compound 0.1 µM
# [17] = second compound 0.3 µM, first compound 0.316 µM
# [18] = second compound 0.3 µM, first compound 1 µM
# [19] = second compound 0.949 µM, first compound 0.00316 µM
# [20] = second compound 0.949 µM, first compound 0.01 µM
# [21] = second compound 0.949 µM, first compound 0.0316 µM
# [22] = second compound 0.949 µM, first compound 0.1 µM
# [23] = second compound 0.949 µM, first compound 0.316 µM
# [24] = second compound 0.949 µM, first compound 1 µM
# [25] = second compound 3 µM, first compound 0.00316 µM
# [26] = second compound 3 µM, first compound 0.01 µM
# [27] = second compound 3 µM, first compound 0.0316 µM
# [28] = second compound 3 µM, first compound 0.1 µM
# [29] = second compound 3 µM, first compound 0.316 µM
# [30] = second compound 3 µM, first compound 1 µM
# 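For viability, T/C in this document: spheroids exposed to compounds for 7 days.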
SMILES,IC50 (second compound 0.03 µM),IC50 (second compound 0.0949 µM),IC50 (second compound 0.3 µM),IC50 (second compound 0.949 µM),IC50 (second compound 3 µM),"viability, T/C [1]","viability, T/C [2]","viability, T/C [3]","viability, T/C [4]","viability, T/C [5]","viability, T/C [6]","viability, T/C [7]","viability, T/C [8]","viability, T/C [9]","viability, T/C [10]","viability, T/C [11]","viability, T/C [12]","viability, T/C [13]","viability, T/C [14]","viability, T/C [15]",other results
CCN1CCN(Cc2ccc(Nc3ncc(F)c(-c4cc(F)c5nc(C)n(C(C)C)c5c4)n3)nc2)CC1 + CCN1C(C(=O)NC23CCC(C(=O)O)(CC2)CC3)C(c2cccc(Cl)c2F)C2(C(=O)Nc3cc(Cl)ccc32)C12CCCCC2,> 1000 nM,> 1000 nM,> 1000 nM,> 1000 nM,> 1000 nM,97.8%,86.6%,108%,128%,133%,133%,104%,96.2%,115%,117%,144%,144%,109%,115%,109%,"viability, T/C [16]: 111%; viability, T/C [17]: 129%; viability, T/C [18]: 126%; viability, T/C [19]: 114%; viability, T/C [20]: 119%; viability, T/C [21]: 112%; viability, T/C [22]: 118%; viability, T/C [23]: 129%; viability, T/C [24]: 143%; viability, T/C [25]: 101%; viability, T/C [26]: 107%; viability, T/C [27]: 115%; viability, T/C [28]: 130%; viability, T/C [29]: 146%; viability, T/C [30]: 144%"
O=C(c1ccc(F)c(F)c1Nc1ccc(I)cc1F)N1CC(O)([C@@H]2CCCCN2)C1 + CCN1C(C(=O)NC23CCC(C(=O)O)(CC2)CC3)C(c2cccc(Cl)c2F)C2(C(=O)Nc3cc(Cl)ccc32)C12CCCCC2,511 nM,660 nM,581 nM,455 nM,286 nM,102%,100%,113%,153%,60.5%,35.2%,91.6%,91.1%,151%,151%,69.5%,39%,87.6%,108%,132%,"viability, T/C [16]: 144%; viability, T/C [17]: 61.3%; viability, T/C [18]: 39.9%; viability, T/C [19]: 96.2%; viability, T/C [20]: 111%; viability, T/C [21]: 157%; viability, T/C [22]: 127%; viability, T/C [23]: 56%; viability, T/C [24]: 37%; viability, T/C [25]: 112%; viability, T/C [26]: 128%; viability, T/C [27]: 174%; viability, T/C [28]: 111%; viability, T/C [29]: 48.2%; viability, T/C [30]: 40.1%"
